From US20250003972A1, “A METHOD OF DETERMINING THE PRESENCE OF AN ANALYTE IN A SAMPLE” (Valitacell Limited, priority 2021, published 2025)

Test system: non-monomer IgG
Assay: DAOTA fluorescence polarisation (FP) assay: HMWS IgG (non-monomer) spiked into monomer IgG in culture media
Type: binding
Settings: cell culture media; FP (mP) signal vs percentage non-monomer
Experimental: Non-monomer IgG was sourced internally. This was obtained by size exclusion chromatography from Chinese Hamster Ovary (CHO) cell supernatant (this is a naturally occurring non-monomer IgG).
FP readings were made using an BMG Pherastar plate reader (BMG, […], Germany) in black half area NBS plates in a total of 120 ul (Corning, New York, USA).
For DAOTA FP assays, high molecular weight species (HMWS) of IgG (non-monomer) was spiked into monomer IgG in various proportions in 120 ul total of culture media (CD-CHO, ThermoFisher, UK) at a constant at a concentration of 200 mg/L. 0.1 ug of an N′-propyl, N-propyl derivative of diazaoxatriangulenium (N′PNP-DAOTA) was added, and the polarization signal was measured after 5 minutes incubation in the dark.

| binding to non-monomer IgG / IgG aggregates (FP polarisation signal) | Molecule |
| --- | --- |
| binds to non-monomer IgG | CCCn1c2cccc3oc4cccc5c4[c+](c32)c2c1cccc2n5CCC [N′PNP-DAOTA, N′-propyl, N-propyl derivative of diazaoxatriangulenium] |
| did not bind to IgG aggregates | N-butanoic acid aza-di-oxa-triangulenium [N-Phenyl-ADOTA] |
